{"source": "patent US9682995B2", "about": "“Amino-substituted isothiazoles” (BAYER PHARMA AKTIENGESELLSCHAFT, priority 2013, dated 2017)", "assay_in_all_cases": "Kinase Profiling (KINOMEscan)", "type_in_all_cases": "binding", "key": {"[1]": {"target": "456 kinases (of these 395 non-mutant kinases) (Homo sapiens, UniProt O00238)", "sequence (O00238 14-502 limits assumed, change not shown)": "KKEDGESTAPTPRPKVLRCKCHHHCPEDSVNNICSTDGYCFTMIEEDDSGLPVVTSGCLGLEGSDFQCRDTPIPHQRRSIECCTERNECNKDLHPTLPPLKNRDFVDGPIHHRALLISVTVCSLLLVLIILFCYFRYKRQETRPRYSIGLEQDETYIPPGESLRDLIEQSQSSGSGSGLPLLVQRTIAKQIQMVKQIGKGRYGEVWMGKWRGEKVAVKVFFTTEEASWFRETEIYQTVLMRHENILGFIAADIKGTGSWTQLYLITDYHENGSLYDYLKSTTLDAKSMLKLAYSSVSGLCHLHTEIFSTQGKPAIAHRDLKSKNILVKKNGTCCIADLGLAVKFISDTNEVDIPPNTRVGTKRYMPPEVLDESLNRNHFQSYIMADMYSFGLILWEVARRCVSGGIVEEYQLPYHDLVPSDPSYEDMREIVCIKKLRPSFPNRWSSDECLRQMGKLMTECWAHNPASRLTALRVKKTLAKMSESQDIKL", "conditions": "BMPR1B; 10 μM"}, "[2]": {"target": "456 kinases (of these 395 non-mutant kinases) (Homo sapiens, UniProt O00506)", "conditions": "YSK1; 10 μM"}, "[3]": {"target": "456 kinases (of these 395 non-mutant kinases) (Homo sapiens, UniProt O14936)", "conditions": "CASK; 10 μM"}, "[4]": {"target": "456 kinases (of these 395 non-mutant kinases) (Homo sapiens, UniProt O60285)", "conditions": "ARK5; 10 μM"}, "[5]": {"target": "456 kinases (of these 395 non-mutant kinases) (Homo sapiens, UniProt O60331)", "conditions": "PIP5K1C; 10 μM"}, "[6]": {"target": "456 kinases (of these 395 non-mutant kinases) (Homo sapiens, UniProt O75676)", "conditions": "10 μM"}, "[7]": {"target": "456 kinases (of these 395 non-mutant kinases) (Homo sapiens, UniProt O95382)", "conditions": "ASK2; 10 μM"}, "[8]": {"target": "456 kinases (of these 395 non-mutant kinases) (Homo sapiens, UniProt O95819)", "sequence (O95819 2-1239 limits assumed, change not shown)": "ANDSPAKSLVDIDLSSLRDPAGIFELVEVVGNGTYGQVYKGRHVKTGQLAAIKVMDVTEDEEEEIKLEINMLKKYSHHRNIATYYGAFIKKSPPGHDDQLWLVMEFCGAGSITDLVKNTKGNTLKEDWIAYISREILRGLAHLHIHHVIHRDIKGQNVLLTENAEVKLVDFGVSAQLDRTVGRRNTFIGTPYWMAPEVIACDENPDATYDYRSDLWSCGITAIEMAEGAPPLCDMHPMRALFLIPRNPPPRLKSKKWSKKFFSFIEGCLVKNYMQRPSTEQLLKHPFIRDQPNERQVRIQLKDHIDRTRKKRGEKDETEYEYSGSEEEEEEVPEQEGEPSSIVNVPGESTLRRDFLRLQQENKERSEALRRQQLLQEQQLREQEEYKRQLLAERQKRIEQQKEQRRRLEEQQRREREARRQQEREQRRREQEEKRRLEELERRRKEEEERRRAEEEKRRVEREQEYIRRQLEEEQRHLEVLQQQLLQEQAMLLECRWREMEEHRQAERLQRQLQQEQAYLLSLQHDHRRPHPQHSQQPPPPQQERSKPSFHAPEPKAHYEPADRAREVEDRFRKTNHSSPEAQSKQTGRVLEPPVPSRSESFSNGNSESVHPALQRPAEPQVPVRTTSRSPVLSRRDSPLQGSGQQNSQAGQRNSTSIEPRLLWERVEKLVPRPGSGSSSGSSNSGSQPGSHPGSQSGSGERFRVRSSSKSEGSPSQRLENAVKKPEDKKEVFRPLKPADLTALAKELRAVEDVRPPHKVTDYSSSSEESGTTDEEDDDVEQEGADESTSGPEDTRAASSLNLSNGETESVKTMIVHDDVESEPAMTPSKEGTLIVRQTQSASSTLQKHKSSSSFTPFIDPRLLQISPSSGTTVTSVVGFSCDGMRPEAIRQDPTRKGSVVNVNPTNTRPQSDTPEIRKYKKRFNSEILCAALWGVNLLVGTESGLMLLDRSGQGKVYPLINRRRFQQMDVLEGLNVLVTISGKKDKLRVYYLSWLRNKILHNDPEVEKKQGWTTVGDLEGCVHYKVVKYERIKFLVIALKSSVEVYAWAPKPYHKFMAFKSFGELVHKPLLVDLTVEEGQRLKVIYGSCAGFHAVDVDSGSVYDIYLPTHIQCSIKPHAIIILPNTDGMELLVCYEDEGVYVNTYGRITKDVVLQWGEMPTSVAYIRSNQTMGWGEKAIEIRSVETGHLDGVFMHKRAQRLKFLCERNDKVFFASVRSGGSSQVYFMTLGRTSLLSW", "conditions": "MAP4K4; 10 μM"}, "[9]": {"target": "456 kinases (of these 395 non-mutant kinases) (Homo sapiens, UniProt P00533, DEL746-750)", "conditions": "EGFR(E746-A750del); 10 μM"}, "[10]": {"target": "456 kinases (of these 395 non-mutant kinases) (Homo sapiens, UniProt P27448)", "conditions": "MARK3; 10 μM"}, "[11]": {"target": "456 kinases (of these 395 non-mutant kinases) (Homo sapiens, UniProt P30291)", "conditions": "WEE1; 10 μM"}, "[12]": {"target": "456 kinases (of these 395 non-mutant kinases) (Homo sapiens, UniProt P42336, H1047L)", "conditions": "PIK3CA(H1047L); 10 μM"}, "[13]": {"target": "456 kinases (of these 395 non-mutant kinases) (Homo sapiens, UniProt P42685)", "conditions": "FRK; 10 μM"}, "[14]": {"target": "456 kinases (of these 395 non-mutant kinases) (Homo sapiens, UniProt P51956)", "conditions": "NEK3; 10 μM"}, "[15]": {"target": "456 kinases (of these 395 non-mutant kinases) (Homo sapiens, UniProt P53355)", "conditions": "DAPK1; 10 μM"}, "[16]": {"target": "456 kinases (of these 395 non-mutant kinases) (Homo sapiens, UniProt P53778)", "conditions": "p38-gamma; 10 μM"}, "[17]": {"target": "456 kinases (of these 395 non-mutant kinases) (Homo sapiens, UniProt Q12852)", "conditions": "DLK; 10 μM"}, "[18]": {"target": "456 kinases (of these 395 non-mutant kinases) (Homo sapiens, UniProt Q13131)", "conditions": "AMPK-alpha1; 10 μM"}, "[19]": {"target": "456 kinases (of these 395 non-mutant kinases) (Homo sapiens, UniProt Q14164)", "conditions": "IKK-epsilon; 10 μM"}, "[20]": {"target": "456 kinases (of these 395 non-mutant kinases) (Homo sapiens, UniProt Q15139)", "conditions": "PRKD1; 10 μM"}, "[21]": {"target": "456 kinases (of these 395 non-mutant kinases) (Homo sapiens, UniProt Q15759)", "conditions": "p38-beta; 10 μM"}, "[22]": {"target": "456 kinases (of these 395 non-mutant kinases) (Homo sapiens, UniProt Q16512)", "sequence (Q16512 2-942 limits assumed, change not shown)": "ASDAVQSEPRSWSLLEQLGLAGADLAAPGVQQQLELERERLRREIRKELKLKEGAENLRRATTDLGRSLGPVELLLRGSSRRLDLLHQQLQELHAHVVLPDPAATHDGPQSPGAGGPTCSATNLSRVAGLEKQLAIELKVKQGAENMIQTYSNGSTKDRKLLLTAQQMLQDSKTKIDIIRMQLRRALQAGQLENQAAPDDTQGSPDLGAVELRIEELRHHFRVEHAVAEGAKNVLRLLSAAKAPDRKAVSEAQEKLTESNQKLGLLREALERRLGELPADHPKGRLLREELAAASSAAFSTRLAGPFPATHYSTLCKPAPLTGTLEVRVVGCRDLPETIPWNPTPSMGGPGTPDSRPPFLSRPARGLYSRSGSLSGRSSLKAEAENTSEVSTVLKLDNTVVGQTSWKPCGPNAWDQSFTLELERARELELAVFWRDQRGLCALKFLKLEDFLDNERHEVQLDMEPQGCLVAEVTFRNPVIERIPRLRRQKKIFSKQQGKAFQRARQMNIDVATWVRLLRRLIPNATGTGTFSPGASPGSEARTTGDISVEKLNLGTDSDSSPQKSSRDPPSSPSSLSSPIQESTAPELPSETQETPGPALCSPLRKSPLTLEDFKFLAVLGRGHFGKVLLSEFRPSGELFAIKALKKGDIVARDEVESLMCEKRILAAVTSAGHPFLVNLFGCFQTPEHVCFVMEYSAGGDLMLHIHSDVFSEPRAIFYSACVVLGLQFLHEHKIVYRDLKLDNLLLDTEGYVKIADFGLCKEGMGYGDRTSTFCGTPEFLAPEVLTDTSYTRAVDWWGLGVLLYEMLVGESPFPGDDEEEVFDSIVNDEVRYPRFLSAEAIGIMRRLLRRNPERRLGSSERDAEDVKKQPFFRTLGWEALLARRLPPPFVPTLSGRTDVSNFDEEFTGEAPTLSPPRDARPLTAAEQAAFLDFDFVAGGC", "conditions": "PKN1; 10 μM"}, "[23]": {"target": "456 kinases (of these 395 non-mutant kinases) (Homo sapiens, UniProt Q16566)", "conditions": "CAMK4; 10 μM"}, "[24]": {"target": "456 kinases (of these 395 non-mutant kinases) (Homo sapiens, UniProt Q59H18)", "conditions": "TNNI3K; 10 μM"}, "[25]": {"target": "456 kinases (of these 395 non-mutant kinases) (Homo sapiens, UniProt Q86UX6)", "conditions": "YANK3; 10 μM"}, "[26]": {"target": "456 kinases (of these 395 non-mutant kinases) (Homo sapiens, UniProt Q86YV6)", "conditions": "MYLK4; 10 μM"}, "[27]": {"target": "456 kinases (of these 395 non-mutant kinases) (Homo sapiens, UniProt Q8IVW4)", "conditions": "CDKL3; 10 μM"}, "[28]": {"target": "456 kinases (of these 395 non-mutant kinases) (Homo sapiens, UniProt Q8IWQ3)", "conditions": "BRSK2; 10 μM"}, "[29]": {"target": "456 kinases (of these 395 non-mutant kinases) (Homo sapiens, UniProt Q8N752)", "conditions": "CSNK1A1L; 10 μM"}, "[30]": {"target": "456 kinases (of these 395 non-mutant kinases) (Homo sapiens, UniProt Q9BYP7)", "conditions": "WNK3; 10 μM"}, "[31]": {"target": "456 kinases (of these 395 non-mutant kinases) (Homo sapiens, UniProt Q9H2G2)", "conditions": "SLK; 10 μM"}, "[32]": {"target": "456 kinases (of these 395 non-mutant kinases) (Homo sapiens, UniProt Q9NWZ3)", "conditions": "IRAK4; 10 μM"}}, "data": [{"compound": "CCc1ccccc1NC(=O)c1c(C)nsc1Nc1cnc2cc(F)ccc2n1", "note": "[Example 20, N-(2-Ethylphenyl)-5-[(6-fluoroquinoxalin-2-yl)amino]-3-methyl-1,2-thiazole-4-carboxamide]", "values": [{"measurement": "% Ctrl @ 10 μM", "setting": "[1]", "result": 95, "unit": "% Ctrl"}, {"measurement": "% Ctrl @ 10 μM", "setting": "[2]", "result": 100, "unit": "% Ctrl"}, {"measurement": "% Ctrl @ 10 μM", "setting": "[3]", "result": 87, "unit": "% Ctrl"}, {"measurement": "% Ctrl @ 10 μM", "setting": "[4]", "result": 85, "unit": "% Ctrl"}, {"measurement": "% Ctrl @ 10 μM", "setting": "[5]", "result": 100, "unit": "% Ctrl"}, {"measurement": "% Ctrl @ 10 μM", "setting": "[6]; RPS6KA4(Kin.Dom.1-N-terminal)", "result": 93, "unit": "% Ctrl"}, {"measurement": "% Ctrl @ 10 μM", "setting": "[6]; RPS6KA4(Kin.Dom.2-C-terminal)", "result": 88, "unit": "% Ctrl"}, {"measurement": "% Ctrl @ 10 μM", "setting": "[7]", "result": 73, "unit": "% Ctrl"}, {"measurement": "% Ctrl @ 10 μM", "setting": "[8]", "result": 100, "unit": "% Ctrl"}, {"measurement": "% Ctrl @ 10 μM", "setting": "[9]", "result": 100, "unit": "% Ctrl"}, {"measurement": "% Ctrl @ 10 μM", "setting": "[10]", "result": 93, "unit": "% Ctrl"}, {"measurement": "% Ctrl @ 10 μM", "setting": "[11]", "result": 100, "unit": "% Ctrl"}, {"measurement": "% Ctrl @ 10 μM", "setting": "[12]", "result": 56, "unit": "% Ctrl"}, {"measurement": "% Ctrl @ 10 μM", "setting": "[13]", "result": 66, "unit": "% Ctrl"}, {"measurement": "% Ctrl @ 10 μM", "setting": "[14]", "result": 97, "unit": "% Ctrl"}, {"measurement": "% Ctrl @ 10 μM", "setting": "[15]", "result": 88, "unit": "% Ctrl"}, {"measurement": "% Ctrl @ 10 μM", "setting": "[16]", "result": 58, "unit": "% Ctrl"}, {"measurement": "% Ctrl @ 10 μM", "setting": "[17]", "result": 94, "unit": "% Ctrl"}, {"measurement": "% Ctrl @ 10 μM", "setting": "[18]", "result": 92, "unit": "% Ctrl"}, {"measurement": "% Ctrl @ 10 μM", "setting": "[19]", "result": 100, "unit": "% Ctrl"}, {"measurement": "% Ctrl @ 10 μM", "setting": "[20]", "result": 88, "unit": "% Ctrl"}, {"measurement": "% Ctrl @ 10 μM", "setting": "[21]", "result": 100, "unit": "% Ctrl"}, {"measurement": "% Ctrl @ 10 μM", "setting": "[22]", "result": 61, "unit": "% Ctrl"}, {"measurement": "% Ctrl @ 10 μM", "setting": "[23]", "result": 100, "unit": "% Ctrl"}, {"measurement": "% Ctrl @ 10 μM", "setting": "[24]", "result": 85, "unit": "% Ctrl"}, {"measurement": "% Ctrl @ 10 μM", "setting": "[25]", "result": 67, "unit": "% Ctrl"}, {"measurement": "% Ctrl @ 10 μM", "setting": "[26]", "result": 100, "unit": "% Ctrl"}, {"measurement": "% Ctrl @ 10 μM", "setting": "[27]", "result": 66, "unit": "% Ctrl"}, {"measurement": "% Ctrl @ 10 μM", "setting": "[28]", "result": 100, "unit": "% Ctrl"}, {"measurement": "% Ctrl @ 10 μM", "setting": "[29]", "result": 100, "unit": "% Ctrl"}, {"measurement": "% Ctrl @ 10 μM", "setting": "[30]", "result": 100, "unit": "% Ctrl"}, {"measurement": "% Ctrl @ 10 μM", "setting": "[31]", "result": 95, "unit": "% Ctrl"}, {"measurement": "% Ctrl @ 10 μM", "setting": "[32]", "result": 100, "unit": "% Ctrl"}]}]}
